In PMC5814316 (Experimental Animals, 2017):

Columns and labels:
[1] = Pharmacokinetic study in rats: CP and DECP with and without KTZ, KTZ alone; format: in vivo; details: rat, plasma; for AUC(0-inf): AUC0→∞; for MRT inf: MRT0–∞
[2] = Stability of DECP, CP and KTZ in rat plasma under storage conditions; format: physicochemical; details: for Short term stability, Measured / Short term stability, RE: 25 °C for 3 h; for stability throughout the whole manipulation and storage processes: short term, long term, freeze-thaw; for Long term stability, Measured / Long term stability, RE: −80 °C for 3 months; for Three freeze−thaw cycles, Measured / Three freeze−thaw cycles, RE: −80°C to 25°C
[3] = biological target: T1, CYP3A4 (Homo sapiens, UniProt P08684); test: in vitro; details: human liver microsomes
T1 sequence (P08684 whole entry): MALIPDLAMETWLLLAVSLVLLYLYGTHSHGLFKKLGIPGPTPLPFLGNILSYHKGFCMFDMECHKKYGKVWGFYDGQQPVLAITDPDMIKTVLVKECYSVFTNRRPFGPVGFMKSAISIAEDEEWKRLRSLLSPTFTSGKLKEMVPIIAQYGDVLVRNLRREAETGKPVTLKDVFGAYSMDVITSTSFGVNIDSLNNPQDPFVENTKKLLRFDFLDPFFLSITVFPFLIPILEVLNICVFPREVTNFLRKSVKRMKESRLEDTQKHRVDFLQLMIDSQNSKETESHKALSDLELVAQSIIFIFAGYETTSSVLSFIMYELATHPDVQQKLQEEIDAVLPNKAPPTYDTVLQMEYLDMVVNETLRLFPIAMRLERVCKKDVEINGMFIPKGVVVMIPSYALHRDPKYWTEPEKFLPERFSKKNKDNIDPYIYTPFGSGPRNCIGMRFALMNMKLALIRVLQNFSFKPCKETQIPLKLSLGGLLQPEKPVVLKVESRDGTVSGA

[4] = tested on: CYP2B6; details: C-4 oxidation of CP; cited from earlier work
[5] = tested on: CYP3A4; details: C-4 oxidation of CP; cited from earlier work
[6] = tested on: CYP2C9; details: C-4 oxidation of CP; cited from earlier work
[7] = tested on: CYP3A4; details: cited from earlier work
[8] = suffering and junctival irritation of the operator; cited from earlier work
[9] = tested on: rats; test: Toxicity observation in rats after single dose KTZ; format: in vivo, rat
[10] = biological target: T1, CYP3A4; test: KTZ inhibition of CP conversion to DECP in HLM; details: human liver microsomes, probe CP (cyclophosphamide)
[11] = iv, 10 mg/kg, Group 1 (0 mg/kg KTZ), CP 10 mg/kg i.v., rats
[12] = iv, 10 mg/kg, Group 2 (10 mg/kg KTZ oral, 50 min before), CP 10 mg/kg i.v., rats
[13] = iv, 10 mg/kg, Group 3 (20 mg/kg KTZ oral, 50 min before), CP 10 mg/kg i.v., rats
[14] = iv, 10 mg/kg, Group 4 (40 mg/kg KTZ oral, 50 min before), CP 10 mg/kg i.v., rats

For O=P1(N(CCCl)CCCl)NCCCO1 (stereo not drawn) [CP, Cyclophosphamide], the AUC(0-t) ([1]; iv, 10 mg/kg, AUC0→t, Group 2 (10 mg/kg KTZ oral, 50 min before), CP 10 mg/kg i.v., rats) was 21100 ng·h/mL, the AUC(0-t) ([1]; iv, 10 mg/kg, AUC0→t, Group 3 (20 mg/kg KTZ oral, 50 min before), CP 10 mg/kg i.v., rats) was 28700 ng·h/mL and the AUC(0-t) ([1]; iv, 10 mg/kg, AUC0→t, Group 4 (40 mg/kg KTZ oral, 50 min before), CP 10 mg/kg i.v., rats) was 38200 ng·h/mL. The AUC(0-inf) [1, 11] was 15500 ng·h/mL, the AUC(0-inf) [1, 12] was 21900 ng·h/mL and the AUC(0-inf) [1, 13] was 29600 ng·h/mL. The AUC(0-inf) [1, 14] was 39000 ng·h/mL, the Cmax ([1]; iv, 10 mg/kg, Cmax, Group 1 (0 mg/kg KTZ), CP 10 mg/kg i.v., rats) was 9420 ng/mL and the Cmax ([1]; iv, 10 mg/kg, Cmax, Group 2 (10 mg/kg KTZ oral, 50 min before), CP 10 mg/kg i.v., rats) was 10400 ng/mL. The Cmax ([1]; iv, 10 mg/kg, Cmax, Group 3 (20 mg/kg KTZ oral, 50 min before), CP 10 mg/kg i.v., rats) was 11400 ng/mL, the Cmax ([1]; iv, 10 mg/kg, Cmax, Group 4 (40 mg/kg KTZ oral, 50 min before), CP 10 mg/kg i.v., rats) was 9600 ng/mL and the MRT last ([1]; iv, 10 mg/kg, MRT0–t, Group 1 (0 mg/kg KTZ), CP 10 mg/kg i.v., rats) was 1.7 ± 0.167 h. It also gave an MRT last ([1]; iv, 10 mg/kg, MRT0–t, Group 2 (10 mg/kg KTZ oral, 50 min before), CP 10 mg/kg i.v., rats) of 1.72 ± 0.357 h, an MRT last ([1]; iv, 10 mg/kg, MRT0–t, Group 3 (20 mg/kg KTZ oral, 50 min before), CP 10 mg/kg i.v., rats) of 2.04 ± 0.293 h and an MRT last ([1]; iv, 10 mg/kg, MRT0–t, Group 4 (40 mg/kg KTZ oral, 50 min before), CP 10 mg/kg i.v., rats) of 2.65 ± 0.482 h. For the same compound, the MRT inf [1, 11] was 1.9 ± 0.345 h, the MRT inf [1, 12] was 1.86 ± 0.6 h and the MRT inf [1, 13] was 2.12 ± 0.361 h. It also gave an MRT inf [1, 14] of 2.67 ± 0.505 h, a Tmax ([1]; iv, 10 mg/kg, Tmax, Group 1 (0 mg/kg KTZ), CP 10 mg/kg i.v., rats) of 0.194 ± 0.086 h and a Tmax ([1]; iv, 10 mg/kg, Tmax, Group 2 (10 mg/kg KTZ oral, 50 min before), CP 10 mg/kg i.v., rats) of 0.194 ± 0.086 h. The Tmax ([1]; iv, 10 mg/kg, Tmax, Group 3 (20 mg/kg KTZ oral, 50 min before), CP 10 mg/kg i.v., rats) was 0.139 ± 0.086 h, the Tmax ([1]; iv, 10 mg/kg, Tmax, Group 4 (40 mg/kg KTZ oral, 50 min before), CP 10 mg/kg i.v., rats) was 0.347 ± 0.327 h and the “Short term stability, Measured” value ([2]; nominal 20 ng/ml) was 20.57 ± 0.81 ng/mL. The “Short term stability, RE” value ([2]; nominal 20 ng/ml) was 2.85%, the “Short term stability, Measured” value ([2]; nominal 80 ng/ml) was 84.49 ± 2.05 ng/mL and the “Short term stability, RE” value ([2]; nominal 80 ng/ml) was 5.61%. For the same compound, the “Short term stability, Measured” value ([2]; nominal 500 ng/ml) was 525.40 ± 73.09 ng/mL, the “Short term stability, RE” value ([2]; nominal 500 ng/ml) was 5.08% and the “stability throughout the whole manipulation and storage processes” value [2] was “stable”. For the same compound, the “Long term stability, Measured” value ([2]; nominal 20 ng/ml) was 18.79 ± 0.42 ng/mL, the “Long term stability, RE” value ([2]; nominal 20 ng/ml) was −6.05% and the “Long term stability, Measured” value ([2]; nominal 80 ng/ml) was 81.16 ± 2.40 ng/mL. The “Long term stability, RE” value ([2]; nominal 80 ng/ml) was 1.45%, the “Long term stability, Measured” value ([2]; nominal 500 ng/ml) was 509.89 ± 68.17 ng/mL and the “Long term stability, RE” value ([2]; nominal 500 ng/ml) was 1.98%. For the same compound, the “Three freeze−thaw cycles, Measured” value ([2]; nominal 20 ng/ml) was 18.68 ± 0.20 ng/mL, the “Three freeze−thaw cycles, RE” value ([2]; nominal 20 ng/ml) was −6.60% and the “Three freeze−thaw cycles, Measured” value ([2]; nominal 80 ng/ml) was 78.39 ± 1.43 ng/mL. The “Three freeze−thaw cycles, RE” value ([2]; nominal 80 ng/ml) was −2.01%, the “Three freeze−thaw cycles, Measured” value ([2]; nominal 500 ng/ml) was 490.26 ± 78.18 ng/mL and the “Three freeze−thaw cycles, RE” value ([2]; nominal 500 ng/ml) was −1.95%. The Km [3] was 160 µM, the “share of the total CP bioactivation” value [4] was “approximately 45%” and the “share of the total CP bioactivation” value [5] was 25%. The “share of the total CP bioactivation” value [6] was 12% and the “part of CP dechloroethylated to DECP and CAA” value [7] was “about 10%”.

In the case of O=CCCl [CAA, chloroacetaldehyde], the “exposure level at which dangerous” value [8] is given as 45 ppm.

In the case of CC(=O)N1CCN(c2ccc(OCC3COC(Cn4ccnc4)(c4ccc(Cl)cc4Cl)O3)cc2)CC1 (stereo not drawn) [KTZ, ketoconazole], the AUC(0-t) ([1]; po, 20 mg/kg) is reported as 4730 ng·h/mL, the Cmax ([1]; po, 20 mg/kg) is reported as 2050 ng/mL and the MRT last ([1]; po, 20 mg/kg) is reported as 1.86 ± 0.193 h. For the same compound, the Tmax ([1]; po, 20 mg/kg) was 0.514 ± 0.399 h, the “Short term stability, Measured” value ([2]; nominal 10 ng/ml) was 9.97 ± 0.23 ng/mL and the “Short term stability, RE” value ([2]; nominal 10 ng/ml) was −0.30%. For the same compound, the “Short term stability, Measured” value ([2]; nominal 40 ng/ml) was 42.23 ± 0.76 ng/mL, the “Short term stability, Measured” value ([2]; nominal 250 ng/ml) was 264.51 ± 38.66 ng/mL and the “Short term stability, RE” value ([2]; nominal 250 ng/ml) was 5.80%. For the same compound, the “stability throughout the whole manipulation and storage processes” value [2] was “stable”, the “Long term stability, Measured” value ([2]; nominal 10 ng/ml) was 9.55 ± 0.07 ng/mL and the “Long term stability, RE” value ([2]; nominal 10 ng/ml) was −4.50%. The “Long term stability, Measured” value ([2]; nominal 40 ng/ml) was 40.04 ± 0.57 ng/mL, the “Long term stability, RE” value ([2]; nominal 40 ng/ml) was 0.10% and the “Long term stability, Measured” value ([2]; nominal 250 ng/ml) was 259.01 ± 37.39 ng/mL. For the same compound, the “Long term stability, RE” value ([2]; nominal 250 ng/ml) was 3.64%, the “Three freeze−thaw cycles, Measured” value ([2]; nominal 10 ng/ml) was 9.57 ± 0.23 ng/mL and the “Three freeze−thaw cycles, RE” value ([2]; nominal 10 ng/ml) was −4.30%. The “Three freeze−thaw cycles, Measured” value ([2]; nominal 40 ng/ml) was 39.46 ± 0.44 ng/mL, the “Three freeze−thaw cycles, RE” value ([2]; nominal 40 ng/ml) was −1.35% and the “Three freeze−thaw cycles, Measured” value ([2]; nominal 250 ng/ml) was 254.65 ± 38.96 ng/mL. For the same compound, the “Three freeze−thaw cycles, RE” value ([2]; nominal 250 ng/ml) was 1.86%, the “toxicity (physiological aspects, data not shown)” value [9] was “no obvious toxicity” and the IC50 [10] was 618 nM.
